Drawing on patent publication US12528786B2, “Plasma kallikrein inhibitors” (Merck Sharp & Dohme LLC, priority 2020, dated 2026), this text covers IC50 for nine compounds.

The term IC50 denotes the concentration at which inhibition is half-maximal. Low readings indicate higher potency, high ones lower potency.

In this assay the target is T1, Human plasma kallikrein (Homo sapiens, UniProt P03952).
T1 construct: yields a heavy chain (371 amino acids) and a light chain (248 amino acids); purchased Enzyme Research Laboratories
Description: Kallikrein Assay (fluorogenic substrate hydrolysis, AFC release). The format is biochemical. The settings on record: purified Human plasma kallikrein 0.5 nM; substrate Acetyl-K—P—R-AFC 100 mM; 50 mM HEPES pH 7.4. A digest of the protocol: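 Purified human plasma kallikrein (0.5 nM final) with Acetyl-K-P-R-AFC substrate (final ≤0.2 Km) in 50 mM HEPES pH 7.4, 150 mM NaCl, 5 mM CaCl2, 0.1% PEG 8000, after enzyme–inhibitor equilibration; room temperature or 37° C. AFC fluorescence (405 Ex/510 Em nm) under linear conditions; IC50 by four-parameter fit, Ki via Cheng-Prusoff.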

T1 sequence (P03952 391-638 limits assumed): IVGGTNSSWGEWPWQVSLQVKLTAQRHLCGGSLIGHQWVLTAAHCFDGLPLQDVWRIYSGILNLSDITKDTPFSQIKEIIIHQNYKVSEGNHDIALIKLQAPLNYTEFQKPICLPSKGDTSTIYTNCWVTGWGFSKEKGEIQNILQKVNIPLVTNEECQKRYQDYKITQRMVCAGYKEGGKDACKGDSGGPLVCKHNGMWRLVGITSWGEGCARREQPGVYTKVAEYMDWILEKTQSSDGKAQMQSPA
T1 sequence (P03952 20-390 partner limits assumed): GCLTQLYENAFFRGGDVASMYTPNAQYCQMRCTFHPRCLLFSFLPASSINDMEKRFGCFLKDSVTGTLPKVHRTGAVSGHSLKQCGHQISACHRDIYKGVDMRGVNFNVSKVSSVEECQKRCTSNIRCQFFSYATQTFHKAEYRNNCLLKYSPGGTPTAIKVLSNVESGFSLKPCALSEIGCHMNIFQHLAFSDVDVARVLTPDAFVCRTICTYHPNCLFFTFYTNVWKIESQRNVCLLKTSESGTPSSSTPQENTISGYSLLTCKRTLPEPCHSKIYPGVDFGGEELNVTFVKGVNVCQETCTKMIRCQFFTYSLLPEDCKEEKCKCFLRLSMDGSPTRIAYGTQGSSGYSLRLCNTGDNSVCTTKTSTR

For `[2H][C@]1(NC(=O)c2cn([C@@H](C)c3cnc(N4C[C@H]5C[C@H]5C4=O)cc3C)nn2)C[C@@H](c2cc(Cl)ccc2C#N)C1` [Example 148, N-((cis)-3-(5-chloro-2-cyanophenyl)cyclobutyl-1-d)-1-((S)-1-(4-methyl-6-((1R,5S)-2-oxo-3-azabicyclo[3.1.0]hexan-3-yl)pyridin-3-yl)ethyl)-1H-1,2,3-triazole-4-carboxamide], it took 0.6 nM to reach half-maximal inhibition (IC50). `Cc1cc(N2C[C@H]3C[C@H]3C2=O)ncc1[C@H](C)n1cc(C(=O)N[C@H]2C[C@@H](c3cc(Cl)ccc3-n3cc(F)cn3)C2)nn1` [Example 149, N-((cis)-3-(5-chloro-2-(4-fluoro-1H-pyrazol-1-yl)phenyl)cyclobutyl)-1-((S)-1-(4-methyl-6-((1R,5S)-2-oxo-3-azabicyclo[3.1.0]hexan-3-yl)pyridin-3-yl)ethyl)-1H-1,2,3-triazole-4-carboxamide] had an IC50 of 5 nM.

Regarding `Cc1c([C@H](C)n2cc(C(=O)NC34CCCC(c5cc(Cl)ccc5C#N)(C3)C4)nn2)cnc(N2C[C@H]3C[C@H]3C2=O)c1C` [Example 150, N-(5-(5-chloro-2-cyanophenyl)bicyclo[3.1.1]heptan-1-yl)-1-((S)-1-(4,5-dimethyl-6-((1R,5S)-2-oxo-3-azabicyclo[3.1.0]hexan-3-yl)pyridin-3-yl)ethyl)-1H-1,2,3-triazole-4-carboxamide], the midpoint of inhibition, the IC50, lay at 5.8 nM. The IC50 values of the last two compounds are within 1.5-fold of each other.

On to `Cc1c([C@H](C)n2cc(C(=O)N[C@H]3C[C@@H](c4cc(Cl)ccc4C(N)=O)C3)nn2)cnc(N2C[C@H]3C[C@H]3C2=O)c1C` [Example 158], for which the IC50 came to 0.9 nM.

The compound `Cc1cc(N2C[C@H]3C[C@H]3C2=O)ncc1C1(n2cc(C(=O)N[C@H]3C[C@@H](c4cc(Cl)ccc4C#N)C3)cn2)CC1` [Example 159, N-((cis)-3-(5-chloro-2-cyanophenyl)cyclobutyl)-1-(1-(4-methyl-6-((1R,5S)-2-oxo-3-azabicyclo[3.1.0]hexan-3-yl)pyridin-3-yl)cyclopropyl)-1H-pyrazole-4-carboxamide] displayed a half-maximal inhibitory concentration (IC50) of 1.7 nM. With `Cc1cc(N2C[C@H]3C[C@H]3C2=O)ncc1C1(n2cc(C(=O)N[C@H]3C[C@@H](c4cc(Cl)ccc4C#N)C3)nn2)CC1` [Example 160, N-((cis)-3-(5-chloro-2-cyanophenyl)cyclobutyl)-1-(1-(4-methyl-6-((1R,5S)-2-oxo-3-azabicyclo[3.1.0]hexan-3-yl)pyridin-3-yl)cyclopropyl)-1H-1,2,3-triazole-4-carboxamide] the figure was 6.7 nM. In the case of `Cc1cc(N2C[C@H]3C[C@H]3C2=O)ncc1[C@H](C)c1cc(C(=O)N[C@H]2C[C@@H](c3cc(Cl)ccc3C#N)C2)n(C)n1` [Example 173, N-((cis)-3-(5-chloro-2-cyanophenyl)cyclobutyl)-1-methyl-3-((S)-1-(4-methyl-6-((1R,5S)-2-oxo-3-azabicyclo[3.1.0]hexan-3-yl)pyridin-3-yl)ethyl)-1H-pyrazole-5-carboxamide], 3.2 nM corresponded to half-maximal inhibition (IC50). `Cc1cc(N2C[C@H]3C[C@H]3C2=O)ncc1[C@@H](C)c1cc(C(=O)N[C@H]2C[C@@H](c3cc(Cl)ccc3C#N)C2)n(C)n1` [Example 174, N-((cis)-3-(5-chloro-2-cyanophenyl)cyclobutyl)-1-methyl-3-((R)-1-(4-methyl-6-((1R,5S)-2-oxo-3-azabicyclo[3.1.0]hexan-3-yl)pyridin-3-yl)ethyl)-1H-pyrazole-5-carboxamide] registered an IC50 of 26.9 nM. As for “N-((cis)-3-(5-chloro-2-cyanophenyl)cyclobutyl)-1-((R)-3-((1R,5S)-2-oxo-3-azabicyclo[3.1.0]hexan-3-yl)-6,7-dihydro-5H-cyclopenta[c]pyridin-7-yl)-1H-1,2,3-triazole-4-carboxamide and N-((cis)-3-(5-chloro-2-cyanophenyl)cyclobutyl)-1-((S)-3-((1R,5S)-2-oxo-3-azabicyclo[3.1.0]hexan-3-yl)-6,7-dihydro-5H-cyclopenta[c]pyridin-7-yl)-1H-1,2,3-triazole-4-carboxamide [Example 153]”, the IC50 came to 23.9 nM.
